Each structure is given as a SMILES string. Where two headings read alike, the source gives them in different places.

The subject of series [1] is Giardia lamblia trophozoites (strain ATCC 30957) gene expression. The series is described as follows: Gene expression in trophozoites by RT-qPCR. The format is cell-based. The settings on record: IC50 of each compound, 48 h. The method, then:
To determine the alterations in the parasite’s metabolism and cellular processes induced by the compounds, the expression levels of various genes encoding metabolic, structural, and oxidative stress response proteins were evaluated. G. lamblia strain ATCC 30957 was grown by following previously established culture parameters.
The culture tube was incubated on ice for 15 min and then centrifuged at 2000 rpm for 6 min to concentrate the cell pellet. Cell counting was performed using the trypan blue method. A 500 µL volume of Trizol ® was added, and it was gently homogenized; then, 60 µL of chloroform was added, and it was homogenized for 10 s with a vortex and incubated on ice for 3 min. Afterward, it was centrifuged at 12,000 rpm for 10 min, the aqueous phase was transferred to a new tube, 200 µL of isopropanol was added, and it was incubated for 3 h on ice. The sample was then centrifuged for 10 min at 12,000 rpm, and the supernatant was discarded. A 600 µL volume of ethanol (70%) was added, homogenized, and centrifuged. In the end, the supernatant was removed, and the sample was centrifuged again to dry the excess alcohol. The pellet was dried. Finally, it was resuspended in 25 µL of sterile MilliQ water. The concentration and purity of the extracted RNA were determined using the NanoDrop® Spectrophotometer ND-1000 (NanoDrop Technologies, Wilmington, DE, USA). […] RNA purity and integrity were confirmed using 0.8% (w/v) agarose gels under denaturing conditions.
The synthesis of cDNA was carried out with […] of purified RNA, and 1 U of […] was added (Thermo Thermo Fisher Scientific, Waltham, MA, USA). First-strand cDNA synthesis was carried out using 1 μg of DNase-treated RNA, combined with a 10 mM dNTP mix, oligo(dT)18 primer, and RevertAid reverse transcriptase (Thermo Scientific) in a final reaction volume of 20 μL. The reaction mixture was incubated at 42 °C for 60 min, followed by heat inactivation at 70 °C for 10 min. The synthesized cDNA was stored at −20 °C until further use. The level of purity and concentration of the cDNA were determined using the NanoDrop® Spectrophotometer ND-1000 (NanoDrop Technologies, Wilmington, DE, USA).
Specific oligonucleotides were designed to determine the expression levels of the gene’s phosphofructokinase, pyruvate kinase, glucose-6-phosphate dehydrogenase::6-phosphogluconolactonase, 6-phosphogluconate dehydrogenase, and transketolase. The design was based on gene sequences available in the National Center for Biotechnology Information (NCBI) database, adhering to the following criteria: an oligonucleotide length of 18–20 bp, a melting temperature (Tm) of 61 °C, a GC content of approximately 40%, and an amplicon size between 80 and 200 bp (Table 4). The oligonucleotides were synthesized by the Sequencing and Synthesis Unit of the Institute of Biotechnology, UNAM.
Additionally, previously reported primers that were used for the gene expression analysis of G. lamblia were also obtained (Table 4). These primers target genes encoding surface structural protein, giardin, actin, pyruvate:ferredoxin oxidoreductase, pyruvate phosphate dikinase, NADH oxidase, triose phosphate isomerase, glyceraldehyde-3-phosphate dehydrogenase, and Aldolase.
Amplification was performed using a StepOne™ Real-Time PCR System and the Fast SYBR® Green Master Mix kit (Applied Biosystems, Foster City, CA, USA) under the following conditions: an initial denaturation at 95 °C for 30 s, followed by 40 cycles of 95 °C for 3 s and 60 °C for 30 s. The melt curve analysis was conducted post-amplification by gradually increasing the temperature from 60 °C to 95 °C. […] Normalization was performed using the geometric mean of cycle threshold (Ct) values, and the relative expression levels of the target genes were calculated using the 2^−ΔΔCt method. Each reaction was performed in five replicates for all analyzed genes and strains. Results are presented as mean values ± standard deviation (SD).

The test system of series [2] is G. lamblia strain ATCC 30957. The series is described as follows: Viability of Giardia lamblia trophozoite culture (trypan blue count). Conditions: for Inhibition of growth of G. lamblia parasite culture: concentration not given; for IC50: trophozoites ATCC 30957, 48 h, 37 °C, read-out: IC50 G. lamblia. The format is cell-based. The method, then: Viability analysis was performed on G. lamblia strain ATCC 30957 grown in TYI-S-33 medium supplemented with 10% fetal bovine serum (FBS) and an antibiotic. Pre-culture was performed in 16 × 150 mm borosilicate tubes with a medium inoculated with 2 × 10^5 trophozoites and incubated at 37 °C for 48 h. For the recovery of the trophozoites, the vial was incubated in ice for 8 min and centrifuged for 6 min at 2000 rpm. The concentrated trophozoites were suspended in 1 mL of phosphate-buffered saline (PBS), and the number of trophozoites was counted by placing a 1:1 volume ratio of cell culture and trypan blue dye (4 g/L); then, a homogeneous drop of the mixture was taken and placed in the Neubauer chamber, and the total cells were counted.
The curves were plotted for concentrations of 0–50 µM of each compound. The assay was performed by placing 1.5 × 10^5 cells in 1.5 mL microcentrifuge tubes with a supplemented medium and different concentrations of each compound (0–50 µM). The negative control was performed under the same conditions without a compound, and the drugs NTZ and MTZ were used as positive controls. The samples were incubated for 48 h at 37 °C. At the end of the incubation, the cell viability count was performed using the trypan blue technique. The viability calculation was performed following the formula nv/(nv + nm), where nv represents the live cells and nm represents the dead cells; the viability value obtained was expressed as a percentage. The IC50 value of each compound was determined using the IC50 Calculator software (https://www.aatbio.com/tools/ic50-calculator).

The nature of series [3]: Cytotoxicity, XTT viability assay, HT-29. Conditions: human, CC50 HT-29, 48 h, XTT. As for the experimental part:
(§1) The cytotoxicity assay was performed to evaluate the effect of the selected compounds on human cells. Colon cells were used because they are cell lines like those present in the microenvironment where G. lamblia colonizes, which is the small intestine of the host. The assay was performed using the human cell lines Caco-2 (ATCC HTB-37) and HT-29 (ATCC […]). Cell viability was determined using the Cell Proliferation Kit II (XTT, St. Louis, MO, EE. UU.). A cell suspension of 2 × 10^3 cells/mL was prepared in Dulbecco’s modified Eagle’s medium (DMEM) supplemented with 10% inactivated fetal bovine serum and an antibiotic (1% penicillin/streptomycin, 5000 U/mL, in a volume of 100 µL). The suspension was added to a 96-well plate. The plates were incubated for 24 h at 37 °C in a 5% CO2 atmosphere. […] The cells were incubated for 48 h at 37 °C in a 5% CO2 atmosphere. Cell viability was determined using the following steps. The medium in each well was replaced with 100 µL of fresh medium, and 50 µL of XTT labeling mix was added per well. The reaction was incubated for four hours at 37 °C and 5% CO2. After incubation, the absorbance of the samples on the plate was measured at 450 nm. Each compound was assayed in triplicate in three independent experiments. CC50 values (μM) were determined using the nonlinear regression function of GraphPad Prism version 8 for Windows.

Series [4] deals with HT-29 cells. Briefly: Cytotoxicity, XTT viability assay, HT-29. Conditions: for Selectivity index (CC50/IC50) HT-29: CC50 HT-29 / IC50 trophozoite ATCC strain 30957. As for the experimental part: as §1
The subject of series [5] is G6PD::6PGL enzyme of G. lamblia. The settings on record: cited from earlier work.
Series [6] is described as follows: Cytotoxicity, XTT viability assay, Caco-2. The settings on record: human. The method, then:
as §1

For another series, the system named is Caco-2 and HT-29 cells. Briefly: Cytotoxicity, XTT viability assay, stated for both cell lines. The settings on record: 125 µM, 48 h. The format is cell-based, human. As for the experimental part:
The suspension was added to a 96-well plate. […] Cell viability was determined using the following steps.
(Tetrazolium assays rely on reduction of a dye to a coloured formazan, in cell work by metabolically active cells.)

The subject of series [7] is G. lamblia strain resistant to nitazoxanide. Briefly: Giardicidal activity in nitazoxanide-resistant strain (trypan blue count). The class given is cell-based. The settings on record: Giardia duodenalis, 48 h, read-out: IC50 G. lamblia (NTZ Resistant). The method, then:
A pre-culture at confluence was used as a starting point, and a concentration–response curve was plotted using an initial compound concentration of 25 μM in a final volume of 1.5 mL of TYI-S-33 medium, followed by serial dilutions of the compound. Each treatment was inoculated with 1.5 × 10^5 trophozoites and incubated for 48 h at 37 °C. At the end of the incubation, the number of trophozoites was determined using the trypan blue assay and by counting in a Neubauer chamber. The viability percentage at each compound concentration was calculated using the negative control as a reference.

Series [8] relates to HT-29 cells. Details: method as in PMID 38893461. The settings on record: cited from earlier work.
The next series concerns Caco-2 cells. Details: method as in PMID 38893461. The settings on record: cited from earlier work.
Setting [9] is: ratio of IC50 values, ATCC strain.
Setting [10] is: Giardia duodenalis, ATCC30957, 48 h.

As for `O=C(Nc1ccc([N+](=O)[O-])cc1)Nc1ncc([N+](=O)[O-])s1` [CNZ-7], in series [1], the “ACT (actin) gene expression, increase vs control” value is on record as 2.1 times; the “G6PD::6PGL gene expression vs control” value is listed as 11.4 fold change; the “GIA (giardin) gene expression, increase vs control” value (shortened to “GIA … increase vs control”) was 2.6 times; the “NADHox gene expression, increase vs control” value came to 1.7 times. For the same molecule, in series [1], the “PFK gene expression vs control” value was “reduction”; the “PFOR gene expression vs control” value was found to be 7.4 fold change; the “PPDK gene expression vs control” value is on record as 15.8 fold change; the “TKT gene expression, increase vs control” value was 1.9 times. Further, the “Inhibition of growth of G. lamblia parasite culture” value in series [2] is listed as “more than 98%”. Also, in [3], the CC50 at 48 h worked out at 529 µM. Besides, the “Selectivity index (CC50/IC50) HT-29” value with HT-29 cells [4] came out at 100. Moreover, the “Inhibition of the G6PD::6PGL enzyme (in words)” value (“Inhibition … (in words)” for short) in [5] was “inhibitors of the G6PD enzyme”. Moreover, in series [6] (Caco-2), the midpoint of cytotoxicity, the CC50 at 48 h, lay at 640 µM and the selectivity ratio at 48 h turned out to be 121. In the series with Caco-2 and HT-29 cells, the “Decrease of cell viability” value is “up to 20%”. Further, the IC50 in series [7] was 2.5 µM.
With `O=C(Nc1ncc([N+](=O)[O-])s1)c1cccc([N+](=O)[O-])c1` [FLP-8, 3-Nitro-N-(5-nitro-1,3-thiazol-2-yl)benzamide], in series [1], the “GIA … increase vs control” value was “did not show changes in expression”; the “NADHox gene expression, increase vs control” value was found to be 1.7 times; the “PFK gene expression vs control” value worked out at 2.7 fold change; the “TKT gene expression, decrease vs control” value is on record as 1.7 times. The “VSP gene expression, increase vs control” value in [1] turned out to be 2.4 times. Moreover, the “Decrease of parasite viability” value in series [2] (25 µM) is 100%. Also, the “Inhibition of growth of G. lamblia parasite culture” value in [2] is listed as “more than 98%”. Moreover, in series [2] (setting [9]), the “Relative potency compared with MTZ” value is reported as 34 times and the “Relative potency compared with NTZ” value stood at 43 times. In [3], the CC50 at 48 h is 43.6 µM. In the series on HT-29 cells [4], the “Selectivity index (CC50/IC50) HT-29” value was found to be 436. The CC50 in the series with HT-29 cells [4] (read-out: CC50 HT-29, 48 h, XTT) was 43.7 µM. In series [5], the “Inhibition … (in words)” value is recorded as “not inhibitors of the enzyme”. In addition, in series [6] (Caco-2), the CC50 at 48 h was determined as 46 µM and the selectivity ratio at 48 h came to 460. Besides, in the series with Caco-2 and HT-29 cells, the “Decrease of cell viability” value is listed as at most 50%. Also, in series [7], the IC50 worked out at 1.19 µM.
Regarding `CCCCOc1ccc(NC(=O)Nc2ncc([N+](=O)[O-])s2)cc1` [CNZ-8], in series [1], the “G6PD::6PGL gene expression vs control” value is 19.4 fold change; the “GIA … increase vs control” value worked out at 12.5 times; the “NADHox gene expression, increase vs control” value stood at 4.2 times; the “PFK gene expression vs control” value is “reduction”. In series [1], the “PPDK gene expression vs control” value was 8.2 fold change and the “TKT gene expression, decrease vs control” value is 1.4 times. Further, the IC50 in series [2] (setting [10]) was under 15 µM. Besides, in [2], the “Inhibition of growth of G. lamblia parasite culture” value was “more than 98%” and the IC50 came out at 11.1 µM. In series [3] (HT-29 cells), this molecule gave a CC50 at 48 h of 622 µM. Moreover, the “Selectivity index (CC50/IC50) HT-29” value in the series with HT-29 cells [4] worked out at 56. Moreover, the “Inhibition … (in words)” value in series [5] is listed as “inhibitors of the G6PD enzyme”. Besides, the selectivity ratio at 48 h in series [6] (Caco-2) was determined as 57. The molecule also gave a cytotoxic concentration (CC50) at 48 h in series [6] (Caco-2, CC50 Caco-2, 48 h, XTT) of 633 µM. Also, in the series with Caco-2 and HT-29 cells, the “Decrease of cell viability” value is given as “up to 20%”. The IC50 in series [7] turned out to be 13.7 µM.
Consider `Cc1ncc([N+](=O)[O-])n1CCO` [MTZ, metronidazole, reference compound], for which the IC50 in series [2] (setting [10]) was found to be 4.3 µM; in series [2] it was 3.4 µM. The “Selectivity index (CC50/IC50) HT-29” value with HT-29 cells [4] was 161. Further, the selectivity ratio at 48 h in series [6] (Caco-2) was 160. In addition, the CC50 in the series on HT-29 cells [8] was 550 µM; with Caco-2 cells, 545 µM.

As usually defined, the CC50 is the concentration giving 50% cytotoxicity. Usually IC50 stands for the concentration that inhibits the measured activity by half.

These data come from article PMC12111156, “Nitazoxanide Analogs: Synthesis, In Vitro Giardicidal Activity, and Effects on Giardia lamblia Metabolic Gene Expression” (International Journal of Molecular Sciences, 2025).
